Test results reported in patent US8003630B2, “Combinatorial therapies for the treatment of neoplasias using the opioid growth factor receptor” (The Penn State Research Foundation, priority 2004, dated 2011).

Assays:
[1] = metabolized primarily in the liver; cited from earlier work
[2] = system: carcinomas of the colon and rectum; details: single agent; cited from earlier work
MiaPaCa-2 cells = experiment: Growth curves of MiaPaCa-2 cells, cell proliferation (MTT) assay, absorbency; details: for Significance from 5-FU 10^−6 M Values: 5-FU 10^−5 M alone or with OGF; for Significance from 5-FU 10^−5 M Values: 5-FU 10^−6 M alone or with OGF (b: 5-FU 10^−5 M more inhibitory); for decrease in cell number from controls: MiaPaCa-2
Description: Cells were counted using a standard MTT assay. In general, each data point represents the average absorbency taken from 10 wells/treatment; error bars represent the S.E.M.

O=c1[nH]cc(F)c(=O)[nH]1 [5-FU, 5-fluorouracil]
drug appearing unchanged in urine [1]: 10% | mean response rate [2]: less than 20% | Significance from 5-FU 10^−6 M Values (MiaPaCa-2 cells; 48 h): ###^b (Significantly different from 5-FU 10^−6 M at p < 0.001 (###)) | Significance from 5-FU 10^−5 M Values (MiaPaCa-2 cells; 48 h): ^^^^b (Significantly different from 5-FU 10^−5 M at p < 0.001) | Significance from 5-FU 10^−6 M Values (MiaPaCa-2 cells; 72 h): ###^b (Significantly different from 5-FU 10^−6 M at p < 0.001 (###)) | Significance from 5-FU 10^−5 M Values (MiaPaCa-2 cells; 72 h): ^^^^b (Significantly different from 5-FU 10^−5 M at p < 0.001) | Significance from 5-FU 10^−6 M Values (MiaPaCa-2 cells; 96 h): ###^b (Significantly different from 5-FU 10^−6 M at p < 0.001 (###)) | Significance from 5-FU 10^−5 M Values (MiaPaCa-2 cells; 96 h): ^^^^b (Significantly different from 5-FU 10^−5 M at p < 0.001) | decrease in cell number from controls (MiaPaCa-2 cells; 48 h, 5-FU 10^-5 M and/or OGF 10^−6 M): 26.0% | decrease in cell number from controls (MiaPaCa-2 cells; 48 h, 5-FU 10^-6 M alone or with OGF 10^−6 M): 12.7% | decrease in cell number from controls (MiaPaCa-2 cells; 72 h, 5-FU 10^-5 M and/or OGF 10^−6 M): 30.1% | decrease in cell number from controls (MiaPaCa-2 cells; 72 h, 5-FU 10^-6 M alone or with OGF 10^−6 M): 10.8% | decrease in cell number from controls (MiaPaCa-2 cells; 96 h, 5-FU 10^-5 M and/or OGF 10^−6 M): 36.4% | decrease in cell number from controls (MiaPaCa-2 cells; 96 h, 5-FU 10^-6 M alone or with OGF 10^−6 M): 15.2%
